Measurements: US6391325B1, “Use of nitrogen-containing complexing agents for deodorization and antimicrobial treatment of the skin and textile fibre materials” (Ciba Specialty Chemicals Corporation, priority 1996, dated 2002)

Assays:
[1] = system: Corynebacterium xerosis ATCC 373; experiment: Agar diffusion test (caso-agar, stamped-out holes); assay type: cell-based; conditions: for Inhibitory aureola diameter Cory. xerosis ATTC 373: 10000 ppm, 100 μl per hole in double-distilled water, 37° C. for 2 days, two values per cell
Description: (§1) Test method: An agar diffusion test is carried out with the following modifications: Medium: casein-soya flour peptone agar (caso-agar) Test organisms: Corynebacterium xerosis ATCC 373 Corynebacterium xerosis ATCC 7711 Corynebacterium minutissimum ATCC 23358 Procedure: 500 ml of caso-agar are innoculated with 3.5 ml of an overnight culture of the bacteria, diluted 1:100, and caso plates (18 ml) are covered with a layer of about 5 ml of the bacteria-containing agar. […] Each stamped-out hole is filled with in each case 100 μl of a test substance dilution and the plates are incubated at 37° C. for 2 days. Double-distilled water is employed as the solvent for all the substances. In the case of […], the pH is adjusted to 3.3 by addition of 1 N NaOH. Chemically prepared S,S-EDDS is adjusted to the pH of 5.6 by addition of 1 N NaOH. Controls: Double-distilled water

[2] = system: Corynebacterium xerosis ATCC 7711; experiment: Agar diffusion test (caso-agar, stamped-out holes); assay type: cell-based; conditions: 10000 ppm, 100 μl per hole in double-distilled water, 37° C. for 2 days; two values per cell
Description: as §1

Structure (SMILES) | Inhibitory aureola diameter Cory. xerosis ATTC 373 [1] | bacteriostatic action against Corynebacterium xerosis ([1]; summary in words of Table 1 (both strains)) | Inhibitory aureola diameter Cory. xerosis ATTC 7711 [2]
O=C(O)C[C@H](NCCN[C@@H](CC(=O)O)C(=O)O)C(=O)O [R,R-EDDS, ethylenediaminedisuccinic acid] | 15/15 |  | 
O=C(O)CN(CCN(CC(=O)O)CC(=O)O)CC(=O)O [EDTA, ethylenediaminetetraacetic acid, reference compound] | 5/5 | pronounced bacteriostatic action | 2/2
O=C(O)C[C@H](NCCN[C@@H](CC(=O)O)C(=O)O)C(=O)O [S,S-EDDS (prepared by fermentation), (S,S)-N,N′-ethylenediaminedisuccinic acid] | 10/10^1 |  | 15/15^1
